# From publication PMC10882719 (Frontiers in Neuroscience, 2024)
# Where two headings read alike, the source gives them in different places.
# Tests used:
# 168 GPCRs [1] = biological target: T1, 168 GPCRs (Homo sapiens, UniProt P25021); assay type: cell-based
# T1 construct: host or cells: PathHunter cell lines
# Procedure: (§1) Studies were performed at Eurofins DiscoverX Corporation (Fremont, CA) using the GPCRmax assay according to the manufacturer’s protocols. […] Activity greater than 30% typically indicates agonist activity and inhibition greater than 50% indicates antagonist activity. This assay uses enzyme fragment complementation with […] as the functional reporter. When a GPCR is activated, […] is recruited and the reporter is detectable. GPCRmax offers a high-throughput screen of 168 GPCRs for agonist or antagonist activity. Briefly, PathHunter cell lines were propagated, seeded into 384-well microplates and incubated at 37°C. […] Microplates were read following signal generation with a PerkinElmer Envision™ instrument for chemiluminescent signal detection. Compound activity was analyzed using CBIS data analysis suite (ChemInnovation, CA) to determine raw values (RLU). For agonist mode assay, percentage activity was calculated using the following formula: % Activity =100% × (mean RLU of test sample - mean RLU of vehicle control) / (mean MAX control ligand - mean RLU of vehicle control). For antagonist mode assay, percentage inhibition was calculated using the following formula: % Inhibition =100% × (1 - (mean RLU of test sample - mean RLU of vehicle control) / (mean RLU of EC80 control - mean RLU of vehicle control)).
# 168 GPCRs [2] = biological target: T2, 168 GPCRs (Homo sapiens, UniProt P34981); assay type: cell-based; conditions: TRHR
# T2 construct: host or cells: PathHunter cell lines
# T2 sequence (P34981 1-398): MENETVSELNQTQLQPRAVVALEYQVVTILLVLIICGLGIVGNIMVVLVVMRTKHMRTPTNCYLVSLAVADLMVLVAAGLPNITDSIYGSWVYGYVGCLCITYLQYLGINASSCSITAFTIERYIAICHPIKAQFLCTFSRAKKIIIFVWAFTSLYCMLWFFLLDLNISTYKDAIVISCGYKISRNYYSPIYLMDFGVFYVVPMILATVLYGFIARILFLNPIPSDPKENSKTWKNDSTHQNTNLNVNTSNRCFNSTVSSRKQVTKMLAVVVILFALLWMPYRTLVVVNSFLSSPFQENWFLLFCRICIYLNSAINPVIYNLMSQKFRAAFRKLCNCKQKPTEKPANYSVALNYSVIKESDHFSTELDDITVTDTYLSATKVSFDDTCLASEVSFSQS
# Procedure: as §1
# 168 GPCRs [3] = biological target: T3, 168 GPCRs (Homo sapiens, UniProt P41146); assay type: cell-based; conditions: OPRL1
# T3 construct: host or cells: PathHunter cell lines
# Procedure: as §1
# 168 GPCRs [4] = biological target: T4, 168 GPCRs (Homo sapiens, UniProt P43116); assay type: cell-based; conditions: PTGER2
# T4 construct: host or cells: PathHunter cell lines
# Procedure: as §1
# 168 GPCRs [5] = biological target: T5, 168 GPCRs (Homo sapiens, UniProt P51681); assay type: cell-based
# T5 construct: host or cells: PathHunter cell lines
# Procedure: as §1
# 168 GPCRs [6] = biological target: T6, 168 GPCRs (Homo sapiens, UniProt P51684); assay type: cell-based
# T6 construct: host or cells: PathHunter cell lines
# T6 sequence (P51684 1-374): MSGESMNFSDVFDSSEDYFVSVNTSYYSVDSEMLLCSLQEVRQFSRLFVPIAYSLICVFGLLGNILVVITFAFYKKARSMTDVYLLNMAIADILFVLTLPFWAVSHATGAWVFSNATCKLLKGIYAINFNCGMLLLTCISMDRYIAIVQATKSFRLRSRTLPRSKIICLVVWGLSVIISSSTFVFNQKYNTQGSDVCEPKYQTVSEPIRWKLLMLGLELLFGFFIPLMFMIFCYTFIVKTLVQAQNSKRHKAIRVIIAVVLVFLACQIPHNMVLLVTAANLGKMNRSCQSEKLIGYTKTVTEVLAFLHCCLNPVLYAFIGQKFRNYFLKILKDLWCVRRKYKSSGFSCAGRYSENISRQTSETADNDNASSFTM
# Procedure: as §1
# 168 GPCRs [7] = biological target: T7, 168 GPCRs (Homo sapiens, UniProt Q969F8); assay type: cell-based; conditions: KISS1R
# T7 construct: host or cells: PathHunter cell lines
# Procedure: as §1
# 168 GPCRs [8] = biological target: T8, 168 GPCRs (Homo sapiens, UniProt Q969V1); assay type: cell-based
# T8 construct: host or cells: PathHunter cell lines
# Procedure: as §1
# 5HT5A = biological target: T9, 5HT5A (Homo sapiens, UniProt P47898); assay: GPCRmax screen, agonist mode, 5HT5A; assay type: cell-based; conditions: for % Agonist Activity: HTR5A
# T9 construct: β-galactosidase enzyme fragment (enzyme fragment complementation reporter); host or cells: PathHunter cell lines
# Procedure: as §1
# amygdala gene expression = assay: RNA-seq differential gene expression, amygdala; assay type: in vivo, rat; conditions: 10 mg/kg IP, 8 h
# T5 sequence (P51681 whole entry): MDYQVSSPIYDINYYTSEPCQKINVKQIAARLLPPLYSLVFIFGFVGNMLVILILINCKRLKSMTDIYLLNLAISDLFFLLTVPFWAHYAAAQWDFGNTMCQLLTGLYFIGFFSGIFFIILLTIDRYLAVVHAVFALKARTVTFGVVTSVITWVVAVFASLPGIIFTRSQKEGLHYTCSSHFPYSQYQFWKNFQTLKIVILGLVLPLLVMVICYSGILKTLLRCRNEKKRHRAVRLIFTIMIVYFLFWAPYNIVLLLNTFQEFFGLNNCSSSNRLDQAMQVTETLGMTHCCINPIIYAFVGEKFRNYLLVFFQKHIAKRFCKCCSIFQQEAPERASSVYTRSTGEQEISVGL
# T1 sequence (P25021 whole entry): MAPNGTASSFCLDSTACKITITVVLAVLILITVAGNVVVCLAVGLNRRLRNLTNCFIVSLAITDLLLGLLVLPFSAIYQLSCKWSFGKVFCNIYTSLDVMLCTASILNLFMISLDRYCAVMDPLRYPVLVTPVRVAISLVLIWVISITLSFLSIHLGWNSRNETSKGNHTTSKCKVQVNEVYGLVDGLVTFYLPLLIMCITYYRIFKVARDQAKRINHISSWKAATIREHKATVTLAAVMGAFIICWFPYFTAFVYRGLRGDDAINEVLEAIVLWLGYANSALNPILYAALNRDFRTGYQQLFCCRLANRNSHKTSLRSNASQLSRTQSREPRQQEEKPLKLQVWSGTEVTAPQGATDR
# T9 sequence (P47898 whole entry, the tested form may be a part): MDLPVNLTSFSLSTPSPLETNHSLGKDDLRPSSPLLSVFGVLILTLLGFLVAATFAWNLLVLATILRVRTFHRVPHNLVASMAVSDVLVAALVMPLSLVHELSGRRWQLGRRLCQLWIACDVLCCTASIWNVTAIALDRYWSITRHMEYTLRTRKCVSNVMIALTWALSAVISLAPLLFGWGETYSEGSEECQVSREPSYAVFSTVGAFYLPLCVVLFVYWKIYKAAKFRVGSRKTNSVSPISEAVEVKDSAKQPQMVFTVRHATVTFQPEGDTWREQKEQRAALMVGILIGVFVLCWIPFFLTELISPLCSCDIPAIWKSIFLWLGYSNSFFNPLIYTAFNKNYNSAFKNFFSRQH
# T3 sequence (P41146 whole entry): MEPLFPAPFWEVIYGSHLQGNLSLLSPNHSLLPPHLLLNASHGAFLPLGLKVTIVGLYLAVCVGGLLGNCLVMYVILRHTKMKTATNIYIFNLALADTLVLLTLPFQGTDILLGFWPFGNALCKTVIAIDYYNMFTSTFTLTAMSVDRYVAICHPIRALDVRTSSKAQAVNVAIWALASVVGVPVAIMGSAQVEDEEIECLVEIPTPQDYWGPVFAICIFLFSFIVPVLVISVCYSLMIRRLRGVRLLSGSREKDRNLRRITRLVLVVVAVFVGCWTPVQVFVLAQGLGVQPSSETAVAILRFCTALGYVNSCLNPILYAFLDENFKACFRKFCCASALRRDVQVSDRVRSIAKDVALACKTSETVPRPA
# T7 sequence (Q969F8 whole entry): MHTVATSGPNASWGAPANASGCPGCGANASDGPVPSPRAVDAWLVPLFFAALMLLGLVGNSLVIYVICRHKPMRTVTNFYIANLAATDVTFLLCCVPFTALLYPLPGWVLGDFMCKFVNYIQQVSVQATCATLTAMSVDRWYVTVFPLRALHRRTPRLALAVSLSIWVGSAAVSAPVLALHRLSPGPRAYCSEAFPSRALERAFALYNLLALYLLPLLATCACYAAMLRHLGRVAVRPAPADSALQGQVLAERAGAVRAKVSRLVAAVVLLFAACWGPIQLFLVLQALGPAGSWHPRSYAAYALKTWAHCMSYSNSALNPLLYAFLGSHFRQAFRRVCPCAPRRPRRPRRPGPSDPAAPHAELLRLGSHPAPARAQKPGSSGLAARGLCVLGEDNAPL
# T4 sequence (P43116 whole entry): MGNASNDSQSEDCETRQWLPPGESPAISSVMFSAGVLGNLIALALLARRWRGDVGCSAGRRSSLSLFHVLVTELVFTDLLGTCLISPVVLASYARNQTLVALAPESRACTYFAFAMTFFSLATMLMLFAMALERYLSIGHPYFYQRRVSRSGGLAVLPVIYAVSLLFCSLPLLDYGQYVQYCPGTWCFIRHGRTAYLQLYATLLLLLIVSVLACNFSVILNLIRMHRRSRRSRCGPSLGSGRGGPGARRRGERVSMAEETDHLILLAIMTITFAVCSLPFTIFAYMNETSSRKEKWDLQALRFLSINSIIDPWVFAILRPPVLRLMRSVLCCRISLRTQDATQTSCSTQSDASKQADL
# T8 sequence (Q969V1 whole entry): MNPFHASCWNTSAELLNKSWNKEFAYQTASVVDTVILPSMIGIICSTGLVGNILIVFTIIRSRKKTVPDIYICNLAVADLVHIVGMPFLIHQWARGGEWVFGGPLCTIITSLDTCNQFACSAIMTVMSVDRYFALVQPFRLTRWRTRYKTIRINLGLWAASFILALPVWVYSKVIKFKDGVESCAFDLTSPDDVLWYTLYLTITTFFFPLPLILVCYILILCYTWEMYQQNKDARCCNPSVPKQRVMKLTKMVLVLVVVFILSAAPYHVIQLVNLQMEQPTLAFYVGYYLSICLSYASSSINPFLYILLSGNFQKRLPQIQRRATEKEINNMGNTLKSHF
Compound,"% Agonist Activity (168 GPCRs [1]; HRH2, 1 uM) [%]","% Antagonist Activity (168 GPCRs [1]; HRH2, 1 uM) [%]","% Agonist Activity (168 GPCRs [1]; HRH2, 10 uM) [%]","% Antagonist Activity (168 GPCRs [1]; HRH2, 10 uM) [%]",% Agonist Activity (168 GPCRs [2]; Conc 1 uM) [%],% Antagonist Activity (168 GPCRs [2]; Conc 1 uM) [%],% Agonist Activity (168 GPCRs [2]; Conc 10 uM) [%],% Antagonist Activity (168 GPCRs [2]; Conc 10 uM) [%],% Agonist Activity (168 GPCRs [3]; Conc 1 uM) [%],% Antagonist Activity (168 GPCRs [3]; Conc 1 uM) [%],% Agonist Activity (168 GPCRs [3]; Conc 10 uM) [%],% Antagonist Activity (168 GPCRs [3]; Conc 10 uM) [%],% Agonist Activity (168 GPCRs [4]; Conc 1 uM) [%],% Antagonist Activity (168 GPCRs [4]; Conc 1 uM) [%],% Agonist Activity (168 GPCRs [4]; Conc 10 uM) [%],% Antagonist Activity (168 GPCRs [4]; Conc 10 uM) [%],"% Agonist Activity (168 GPCRs [5]; CCR5, 1 uM) [%]","% Antagonist Activity (168 GPCRs [5]; CCR5, 1 uM) [%]","% Agonist Activity (168 GPCRs [5]; CCR5, 10 uM) [%]","% Antagonist Activity (168 GPCRs [5]; CCR5, 10 uM) [%]",further results
CNC(C)C(=O)c1ccc2c(c1)OCO2 (centres unmarked) [methylone],-2.5,7.1,-2.8,8.1,-2,-7.2,-2.2,2.8,-1.6,17.1,-2.3,13.2,-1.4,12.7,-3.1,-4.4,-0.1,1.7,0.3,-0.5,"% Agonist Activity (168 GPCRs [6]; CCR6, 1 uM): -2.9%; % Antagonist Activity (168 GPCRs [6]; CCR6, 1 uM): 9.3%; % Agonist Activity (168 GPCRs [6]; CCR6, 10 uM): -3.3%; % Antagonist Activity (168 GPCRs [6]; CCR6, 10 uM): -1.6%; % Agonist Activity (168 GPCRs [7]; 1 uM): -5.5%; % Antagonist Activity (168 GPCRs [7]; 1 uM): 28.7%; % Agonist Activity (168 GPCRs [7]; 10 uM): -3.7%; % Antagonist Activity (168 GPCRs [7]; 10 uM): 14.5%; % Agonist Activity (168 GPCRs [8]; MCHR2, 1 uM): -1.5%; % Antagonist Activity (168 GPCRs [8]; MCHR2, 1 uM): 2%; % Agonist Activity (168 GPCRs [8]; MCHR2, 10 uM): -0.7%; % Antagonist Activity (168 GPCRs [8]; MCHR2, 10 uM): -4.5%; % agonist activity, 5HT5A (greatest activity detected) (5HT5A; 1 or 10 μM, threshold 30% activity): 13.9%; % Agonist Activity (5HT5A; 1 uM): 13.6%; % Agonist Activity (5HT5A; 10 uM): 13.9%; Share of genes regulated by this drug that are also regulated by the other drug (amygdala gene expression): 87%"
"CNC(C)Cc1ccc2c(c1)OCO2 (centres unmarked) [MDMA, 3,4-Methylenedioxy methamphetamine, reference compound]",3.3,8.4,-3.7,15.3,-0.4,16.2,-0.1,9.9,0.5,-6.7,-0.4,-3.2,0.7,-9.8,1.1,-12.8,0.2,4.5,0.1,9.8,"% Agonist Activity (168 GPCRs [6]; CCR6, 1 uM): 1.4%; % Antagonist Activity (168 GPCRs [6]; CCR6, 1 uM): 0%; % Agonist Activity (168 GPCRs [6]; CCR6, 10 uM): 0.7%; % Antagonist Activity (168 GPCRs [6]; CCR6, 10 uM): 0.3%; % Agonist Activity (168 GPCRs [7]; 1 uM): -4.8%; % Antagonist Activity (168 GPCRs [7]; 1 uM): -13.9%; % Agonist Activity (168 GPCRs [7]; 10 uM): -4.3%; % Antagonist Activity (168 GPCRs [7]; 10 uM): 1.8%; % Agonist Activity (168 GPCRs [8]; MCHR2, 1 uM): 0.8%; % Antagonist Activity (168 GPCRs [8]; MCHR2, 1 uM): -25%; % Agonist Activity (168 GPCRs [8]; MCHR2, 10 uM): 0.3%; % Antagonist Activity (168 GPCRs [8]; MCHR2, 10 uM): -17.3%; % Agonist Activity (5HT5A; 1 uM): 7.2%; % Agonist Activity (5HT5A; 10 uM): 0.8%; Additional genes significantly regulated by this drug only (amygdala gene expression; vs vehicle): 1,313"
